One experiment deals with Carbonic anhydrase 12 (Homo sapiens, UniProt O43570). The experiment can be described thus: Inhibition of human carbonic anhydrase-12.
The target in another experiment is Carbonic anhydrase 2 (Homo sapiens, UniProt P00918). The experiment can be described thus: Inhibition of human carbonic anhydrase-2.
Another experiment addresses Carbonic anhydrase 1 (Homo sapiens, UniProt P00915). The experiment can be described thus: Inhibition of human carbonic anhydrase-1.

Carbonic anhydrase 1, sequence (P00915 whole entry): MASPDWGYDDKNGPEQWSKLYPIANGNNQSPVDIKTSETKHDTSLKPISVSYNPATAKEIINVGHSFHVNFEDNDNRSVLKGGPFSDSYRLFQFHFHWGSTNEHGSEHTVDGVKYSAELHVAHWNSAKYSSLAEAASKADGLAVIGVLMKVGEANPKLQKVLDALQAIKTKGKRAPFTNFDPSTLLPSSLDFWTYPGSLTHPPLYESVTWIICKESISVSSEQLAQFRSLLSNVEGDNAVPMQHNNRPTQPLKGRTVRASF
Carbonic anhydrase 12, sequence (O43570 whole entry): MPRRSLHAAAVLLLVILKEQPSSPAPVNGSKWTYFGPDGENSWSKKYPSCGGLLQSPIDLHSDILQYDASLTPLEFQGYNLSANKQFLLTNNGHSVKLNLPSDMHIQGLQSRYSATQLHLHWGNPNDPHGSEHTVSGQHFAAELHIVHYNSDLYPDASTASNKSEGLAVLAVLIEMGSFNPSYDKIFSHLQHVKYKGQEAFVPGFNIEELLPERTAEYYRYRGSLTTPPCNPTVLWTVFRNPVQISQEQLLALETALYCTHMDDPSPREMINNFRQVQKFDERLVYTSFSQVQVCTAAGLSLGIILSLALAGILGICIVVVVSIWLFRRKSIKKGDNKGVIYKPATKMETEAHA

In the case of `NS(=O)(=O)Oc1ccc(NC(=O)NC23CC4CC(CC(C4)C2)C3)cc1`, the Ki (as a rule, a measure of affinity in units of concentration, obtained from inhibition or displacement) on Carbonic anhydrase 12 worked out at 43 nM; on Carbonic anhydrase 2 it was 430 nM.

As to `Cc1cc(Cl)ccc1NC(=O)Nc1ccc(NS(N)(=O)=O)cc1`, the Ki at Carbonic anhydrase 12 turned out to be 17 nM; on Carbonic anhydrase 1, 4300 nM.

As for `NS(=O)(=O)Nc1ccc(NC(=O)NC2CCCCC2)cc1`, the Ki was 108 nM on Carbonic anhydrase 12, 4300 nM on Carbonic anhydrase 1 and 342 nM on Carbonic anhydrase 2.

Compound `COc1ccc(OC)c(NC(=O)Nc2ccc(NS(N)(=O)=O)cc2)c1` had a Ki at Carbonic anhydrase 2 of 430 nM.

For the compound `CC(NC(=O)Nc1ccc(NS(N)(=O)=O)cc1)c1cccc2ccccc12` (stereo not given), the values for the Ki at Carbonic anhydrase 12 and on Carbonic anhydrase 2 were 27 nM and 430 nM, respectively.

Regarding `NS(=O)(=O)Nc1ccc(NC(=O)NCc2ccco2)cc1`, the Ki at Carbonic anhydrase 12 turned out to be 11 nM; on Carbonic anhydrase 1, 6660 nM.

Take `CC(C)c1ccccc1NC(=O)Nc1ccc(NS(N)(=O)=O)cc1`: the Ki at Carbonic anhydrase 2 turned out to be 682 nM.

Consider `COc1ccc(C)cc1NC(=O)Nc1ccc(NS(N)(=O)=O)cc1`, for which the Ki stood at 27 nM at Carbonic anhydrase 12 and 430 nM on Carbonic anhydrase 2.

With `NS(=O)(=O)Nc1ccc(NC(=O)Nc2ccccc2-c2ccccc2)cc1`, the Ki at Carbonic anhydrase 12 was found to be 216 nM; at Carbonic anhydrase 2, 858 nM.

On to `COc1ccc(NC(=O)Nc2ccc(NS(N)(=O)=O)cc2)c(C)c1`, for which the Ki on Carbonic anhydrase 12 was 34 nM; on Carbonic anhydrase 1, 3420 nM; on Carbonic anhydrase 2, 342 nM.

In the case of `Cc1cc(C)cc(NC(=O)Nc2ccc(NS(N)(=O)=O)cc2)c1`, the Ki at Carbonic anhydrase 2 stood at 682 nM.

As for `NS(=O)(=O)Nc1ccc(NC(=O)NCCc2ccccc2)cc1`, the Ki worked out at 9 nM at Carbonic anhydrase 12, 2710 nM at Carbonic anhydrase 1 and 171 nM on Carbonic anhydrase 2.

In the case of `NS(=O)(=O)Nc1ccc(NC(=O)Nc2ccc(Cl)cc2)cc1`, the Ki on Carbonic anhydrase 12 was 27 nM; at Carbonic anhydrase 1, 3420 nM; at Carbonic anhydrase 2, 342 nM.

As to `NS(=O)(=O)Nc1ccc(NC(=O)Nc2cccc([N+](=O)[O-])c2)cc1`, the Ki at Carbonic anhydrase 12 is 9 nM; on Carbonic anhydrase 1, 2150 nM; at Carbonic anhydrase 2 it was 430 nM.

On to `CCCCOc1ccc(NC(=O)Nc2ccc(NS(N)(=O)=O)cc2)cc1`, for which the Ki on Carbonic anhydrase 1 amounted to 1710 nM; at Carbonic anhydrase 2, 342 nM.

Take `NS(=O)(=O)Nc1ccc(NC(=O)NCc2ccccc2)cc1`: the Ki came out at 9 nM at Carbonic anhydrase 12, 2710 nM at Carbonic anhydrase 1 and 136 nM on Carbonic anhydrase 2.

For the origin of these results see BindingDB's records for doi:10.1016/j.bmc.2012.11.004 (Romanian Academy, 2013).
